This passage reports EC50 and T/C results from ChEMBL document CHEMBL1145666, “Geriatrics photo quiz. Thoracic aortic aneurysm” (1983).

Common to all, as to format: functional
Test [1] has as its system P388. The test is described as follows: Antitumor activity against mouse P388 cells. To be noted: read-out: ED50 (the source's name).
Test [2] relates to P388. Description: In vivo antitumor activity against mouse P388 cells at 40 ug/kg relative to control.
The subject of test [3] is P388. Description: In vivo antitumor activity against mouse P388 cells at 20 ug/kg relative to control.

Values after ≈ are worked out from the molar mass of the structure shown.

Regarding `C=C(C)[C@]12C[C@@H](C)[C@@]34O[C@](CCCCCCCCC)(O[C@@H]1[C@@H]3[C@@H]1O[C@]1(CO)[C@@H](O)[C@]1(O)C(=O)C(C)=C[C@H]14)O2` [SIMPLEXIN], the EC50 with P388 [1] was 5 ng/mL (≈ 9.39 nM).

For `C=C(C)[C@]12C[C@@H](C)[C@@]34OC5(CCCCCCC[C@H](C)[C@H]6[C@H](C)[C@H](OC(=O)c7ccccc7)[C@@](O)([C@H](O)[C@@]7(CO)O[C@H]7[C@H]3[C@H]1O5)[C@@H]64)O2` [PIMELEA FACTOR P2], the EC50 with P388 [1] is 0.79 ng/mL (≈ 1.24 nM). Besides, the T/C is given as 130 in the test on P388 [2] and 132 in the test with P388 [3].
